Test results published in patent US20100190711A1, “BIG GASTRIN I AS A THERAPEUTIC AGENT” (priority 2007, published 2010).
Where a SMILES comes first, the peptide text is derived from it. [ ]: non-standard residue; d: D form. pGlu = O=C1CC[C@@H](C(=O)O)N1

System: drug-resistant Mycobacterium tuberculosis
Conditions: Mycobacterium tuberculosis resistant to PAS, streptomycin and INH; peptide 10 micrograms per ml; seven days

CSCC[C@H](NC(=O)[C@H](Cc1c[nH]c2ccccc12)NC(=O)CNC(=O)[C@H](Cc1ccc(O)cc1)NC(=O)[C@H](C)NC(=O)[C@H](CCC(=O)O)NC(=O)[C@H](CCC(=O)O)NC(=O)[C@H](CCC(=O)O)NC(=O)[C@H](CCC(=O)O)NC(=O)[C@H](CCC(=O)O)NC(=O)[C@H](CC(C)C)NC(=O)[C@H](Cc1c[nH]c2ccccc12)NC(=O)[C@@H]1CCCN1C(=O)CNC(=O)[C@H](CCC(N)=O)NC(=O)[C@H](CCCCN)NC(=O)[C@H](CCCCN)NC(=O)[C@H](CO)NC(=O)[C@@H]1CCCN1C(=O)[C@H](CC(=O)O)NC(=O)[C@H](C)NC(=O)[C@@H](NC(=O)[C@H](CC(C)C)NC(=O)[C@H](Cc1c[nH]cn1)NC(=O)[C@@H]1CCCN1C(=O)[C@@H]1CCCN1C(=O)CNC(=O)[C@H](CCC(N)=O)NC(=O)[C@@H]1CCCN1C(=O)CNC(=O)[C@H](CC(C)C)NC(=O)[C@@H]1CCC(=O)N1)C(C)C)C(=O)N[C@@H](CC(=O)O)C(=O)N[C@@H](Cc1ccccc1)C(N)=O [Big Gastrin I] ([pGlu]LGPQGPPHLVADPSKKQGPWLEEEEEAYGWMDF-NH2)
% inhibition: 100.0%
